Legend:
[1] = system: human retinal endothelial cells (HREC); assay: Proliferation of human retinal endothelial cells (crystal violet); assay type: cell-based; conditions: 72 hours
Description: (§1) Primary cultures of human retinal endothelial cells (HREC) were used. Cells were obtained from Cell Systems (Virginia, USA) and subcultured with CSC complete medium (Cell Systems). Cells at 2 to 5 passages were seeded in 24-well plates at 7,500 cells/well density and, once attached, the cells were treated or not treated (controls) with 2A-5HBS (500 and 1000 μM) or 5A-2HBS (500 and 1000 μM) and they were allowed to proliferate for 72 hours, with daily medium changes. After that, the proliferation of HREC was evaluated by staining the fixed cells with crystal violet. The number of cells is proportional to the amount of retained dye, which was spectrophotometrically determined by measuring absorbance at 595 nm after removing the dye from the cells. Data are expressed as the percentage of absorbance at 595 nm obtained in control conditions. Data were obtained from two different experiments performed in triplicate.
as §1, with “2,5-DHCME (50” for “2A-5HBS (500”, “100” for “1000 μM) or 5A-2HBS (500 and 1000”, “changes. Under the same conditions, other cultures were treated with calcium 2,5-dihydroxybenzenesulfonate (DHBS; 100 μM) for comparison.” for “changes.”

[2] = system: corneal neovascularization; assay: Topical solution in a patient with corneal neovascularization; assay type: in vivo, human; conditions: 5% solution of potassium salt, 4 drops a day topically, 19 days, one patient
From the text: Photographs showing the presence of corneal neovascularization in a patient before being treated (A) and after 19 days of topical application of a solution containing 5% of potassium 2,5-dihydroxybenzoate (B). The treatment consisted of daily topical application of 4 drops of such solution.
4 drops a day were topically applied in a patient that presented a corneal neovascularization process refractory to any type of previous treatment.

[3] = target: T1, fibroblast growth factor-1 (FGF-1) (Homo sapiens, UniProt P05230); assay: FGF-1 induced mitogenesis in quiescent Balb/c 3T3 fibroblasts; assay type: cell-based; conditions: potassium salts, except 2-acetoxy-5-hydroxybenzene sulfonate as calcium salt
T1 sequence (P05230 whole entry, species assumed): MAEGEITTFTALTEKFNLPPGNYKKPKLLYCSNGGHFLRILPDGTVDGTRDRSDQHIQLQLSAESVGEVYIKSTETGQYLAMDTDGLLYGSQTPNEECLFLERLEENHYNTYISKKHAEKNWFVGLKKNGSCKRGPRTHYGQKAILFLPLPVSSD
Description: The evaluated compounds were used in the form of potassium salt, except in the first case in which calcium salt was used. The experiments were carried out as described in Fernández-Tornero C et al. J Biol Chem, 2003.

[4] = target: T1, fibroblast growth factor-1 (FGF-1); assay: Co-crystal structure with fibroblast growth factor-1; assay type: binding; conditions: for binding site on FGF-1: crystal diffraction of the complex; for acetoxyl groups of the compound when bound to FGF-1: crystal diffraction, electron density contoured at 1σ
From the text: (§2) FIG. 24. 2-acetoxy-5-hydroxybenzenesulfonic acid co-crystallized with fibroblast growth factor-1. […] The compound occupies a place that is very close to that described occupied by 2,5-dihydroxybenzenesulfonic acid, the aromatic ring of which forms a cation-π bond with the N^ε group of lysine 132, which is marked in panel A as reference. […] In panels A and B, the protein surface is colored according to its electrostatic potential (light grey: negative charge; dark grey: positive charge; white: lack of charge).
as §2, with “25. 5-acetoxy-2-hydroxybenzenesulfonic” for “24. 2-acetoxy-5-hydroxybenzenesulfonic”
as §2, with “26. 2,5-diacetoxybenzenesulfonic” for “24. 2-acetoxy-5-hydroxybenzenesulfonic”
Based on the crystal diffraction of the FGF-1:2-acetoxy-5-hydroxybenzene sulfonic acid, FGF-1:5-acetoxy-2-hydroxybenzene sulfonic acid and FGF-1:2,5-diacetoxybenzene sulfonic acid complexes, the structures of the complexes were calculated and represented. FIGS. 24, 25 and 26, which show the surface of the dyed protein according to its electrostatic potential (light grey: negative charge; dark grey: positive charge; white: lack of charge), show the manner in which 2-acetoxy-5-hydroxybenzene sulfonic acid, 5-acetoxy-2-hydroxybenzene sulfonic acid and 2,5-diacetoxybenzene sulfonic acid interact, respectively, with FGF-1.

rat glioma C6 cells = assay: Proliferation of rat glioma C6 cells (crystal violet); assay type: cell-based; conditions: 500 μM, 48 h
Description: FIG. 23. […] 5A-2HBS and 2A-5HBS were administered or not (control) after seeding C6 cells in 24 well plates (10^4 per well) until they were fixed 48 hours later. Data are expressed as the mean±SEM of the percentage of absorbance at 595 nm obtained in control cultures, which is proportional to the number of cells stained with crystal violet. Data were obtained from 3 cultures for each treatment and 6 control cultures.
The cell line used was the C6 cell line. The cells were cultured as previously described (Cuevas P et al., Neurol Res 2005, 27:797-800). The cells were cultured as adherent cells in Dulbecco's modified Eagle's medium, supplemented with 7.5% (v/v) fetal bovine serum, 10 μg/ml streptomycin and 10 units/ml penicillin. The tumor cells were seeded in 24-well plates at a density of 10,000 cells/well, and were incubated at 37° C. in a humidified chamber with 5% CO2. Once adhered, the cells were treated or not (controls) with (5A-2HBS) (500 μM) or (2A-5HBS) (500 μM) and they were allowed to proliferate for 48 h. After this time the glioma cell proliferation was evaluated by means of staining the fixed cells with crystal violet. The number of cells is proportional to the amount of retained dye, which was determined spectrophotometrically by measuring the absorbance at 595 nm once the dye was extracted from the cells.

SMILES | HREC proliferation ([1]; 50 μM) | HREC proliferation ([1]; 100 μM, DHBS as calcium salt) | degree of corneal vascularization [2] | HREC proliferation ([1]; 500 μM) | HREC proliferation ([1]; 1000 μM) | FGF-1 induced mitogenesis [3] | binding site on FGF-1 [4] | acetoxyl groups of the compound when bound to FGF-1 [4] | C6 glioma cell proliferation (rat glioma C6 cells)
COC(=O)C=Cc1cc(O)ccc1O [2,5-DHCME, 2,5-dihydroxycinnamic acid methyl ester] | significant inhibition of HREC proliferation | significant inhibition of HREC proliferation | – | – | – | – | – | – | –
O=C([O-])c1cc(O)ccc1O.[K+] [2,5-dihydroxybenzoate, potassium 2,5-dihydroxybenzoate] | – | – | remarkable reduction in the degree of corneal vascularization | – | – | – | – | – | –
CC(=O)Oc1ccc(O)cc1S(=O)(=O)[O-].[K+] [2A-5HBS, potassium 2-acetoxy-5-hydroxybenzene sulfonate] | – | – | – | significant inhibition of HREC proliferation | significant inhibition of HREC proliferation | Inhibition of FGF-1 induced mitogenesis was observed | very close to the one that has been described occupied by 2,5-dihydroxybenzene sulfonic acid | conserve the acetoxyl groups | inhibition of rat glioma cell proliferation
CC(=O)Oc1ccc(O)c(S(=O)(=O)[O-])c1.[K+] [5A-2HBS, potassium 5-acetoxy-2-hydroxybenzene sulfonate] | – | – | – | – | – | Inhibition of FGF-1 induced mitogenesis was observed | very close to the one that has been described occupied by 2,5-dihydroxybenzene sulfonic acid | conserve the acetoxyl groups | inhibition of rat glioma cell proliferation

— patent US9198886B2, “Use of 2,5-dihydroxybenzene for the treatment of ocular diseases” (priority 2006, dated 2015)
